Test results taken from publication PMC8754131 (Microbiology Spectrum, 2022).
No end group written: not given here.

Key:
bacteria = conditions: cited from earlier work
MRSA = assay: bacterial clearance in lung lavage fluid of rats with MRSA-induced pneumonia; type: in vivo, rat; conditions: HNP-1 0.1 ml of 20 μg/ml (2 μg); penicillin 12 μg/ml; intratracheal spray once daily for 3 days
Method: (B) Comparison of the bacterial counts in the different treatment groups. The number of MRSA isolated from lung lavage fluid were counted on the agar-containing culture plates followed by culturing for 36 h at 37°C. […] Data were analyzed using a two-tailed Student's t test and are plotted as the mean ± SD for each condition. n = 3; *, P < 0.05; and **, P < 0.01.
(§1) MRSA and MRPA were isolated from the Affiliated Hospital of Xuzhou Medical University (Jiangsu, China) and obtained from Professor Shengqi Wang (Xuzhou Medical University, Jiangsu, China). Bacterial pneumonia rats were prepared by spraying MRSA suspensions into the lungs via the trachea with a long soft plastic tube, as described in our previous research ([30]). The rats were inoculated using tracheal intubation with 0.2 ml of 10^8 CFU/ml MRSA suspensions. After 8 h, the rats were given medication. […] All of the medicines were sprayed into the rat lungs through the trachea using an intratracheal MicroSprayer Aerosolizer (IA-1B; PennCentury Inc., Wyndmoor, PA, USA) once daily for 3 days without anesthesia.
Preparation of pneumonic model rats and medicine administration.
(§2) clinically isolated bacterial strain MRSA was cultivated in LB medium at 37 °C with
(§3) continuous shaking (200 rpm) overnight. Then, the concentration of MRSA was
(§4) determined by the optical density (OD) at 600 nm based on the turbidity of the cell
suspension. […]

H&E lung pathology = type: in vivo, rat; conditions: MRSA-induced pneumonic rats
Method: (C) Pathological evaluation via H&E staining in pneumonic model rats. […] Data were analyzed using a two-tailed Student's t test and are plotted as the mean ± SD for each condition. n = 3; *, P < 0.05; and **, P < 0.01.
as §1
Preparation of pneumonic model rats and medicine administration. The
as §2, §3, §4
suspension. Subsequently, the bacterial suspension was diluted with LB medium, and
a final density of 10^8 CFU/mL was obtained for animal testing. Male […]

RecA [1] = conditions: real-time RT-PCR, mRNA normalized to 16s
Method: (F) Quantification of RecA mRNA in MRSA by real-time RT-PCR.
Analysis of gene expression by real-time RT-PCR. mRNA from RecA and
LexA was measured by real-time PCR (RT-PCR). XPX-1 cells harvested 3 h after
induction and the total RNA was extracted with the TRIzol® Reagent (Thermo
Fisher Scientific, Waltham, MA, USA) according to the manufacturer’s instruction.
Reversed transcription was performed with the ReverTra Ace qPCR RT Kit
(TOYOBO, Osaka, Japan). The primer sequence of RecA and LexA was as follows:
RecA (forward 5’-[sequence]-3’, reverse
5’-[sequence]-3’); LexA (forward
5’-[sequence]-3 ’ , reverse 5 ’
-[sequence]-3’ ). The relative expression level of RecA and
LexA was normalized to 16s by using the 2- CT method(11).

RecA [2] = assay: RecA mRNA by real-time RT-PCR in MRPA; type: cell-based; conditions: mRNA normalized to 16s
E. coli strain XPX-1 = assay: growth and viable count of E. coli XPX-1 after IPTG-induced expression; type: cell-based; conditions: XPX-1, 1 mM IPTG, Luria-Bertani medium, 37°C
Method: XPX-1 cells were grown to an approximate optical density (OD600) of 0.4 in 20 ml of Luria−Bertani medium containing kanamycin (50 μg/ml) at 37°C, and then IPTG was added at a final concentration of 1 mM to induce the expression of preproHNP-1.
(B) Growth curves of E. coli strain XPX-1 containing pET-28a(+)-preproHNP-1 with (+IPTG) or without (−IPTG) 1 mM IPTG induction. […] Data were analyzed using a two-tailed Student's t test and plotted as the mean ± SD for each condition. **, P < 0.01.
The induction time points of IPTG are labeled as indicated. […] The induction time points of IPTG are labeled as indicated. (D) Bacterial colony count after IPTG induction. The induction time points are labeled as indicated. The number of viable cells were counted after growing for 16 h on plates containing Luria-Bertani broth media. […] The growth curve of E. coli strain XPX-1 with 1 mM IPTG induction as a positive control and XPX-1 without IPTG induction as a negative control. […] Data were analyzed using a two-tailed Student's t test and are plotted as the mean ± SD for each condition. *, P < 0.05 and **, P < 0.01.
E. coli strains and plasmids.
After verifying the sequence, the vectors were transformed into E. coli BL21 (DE3) competent cells to obtain XPX-1, which was used to express the recombinant protein preproHNP-1. […]

RecA [3] = test system: RecA
Method: The inclusion bodies were solubilized in denaturing solution (20 mM Tris, 8 M urea, 20 mM DTT, pH 8.5) at a ratio of 1:20 (grams of inclusion body wet weight: mL of volume) and the suspension was shaken gently for 4 h at room temperature.
After centrifugation at 12,000 ×g for 15 min, the supernatant was diluted directly into refolding buffer (20 mM Tris,1 mM cystine, 3 mM cysteine, 2 M urea, pH 10.0).
After refolding at 4°C overnight, the sample pH was adjusted to 4.5 and the sample was centrifuged at 4,000 ×g for 20 min.
The solubilized protein samples were loaded onto a pre-equilibrated HiTrap Chelating HP (5 mL, GE Healthcare, Chicago, IL, USA) ata flow rate of 10 mL/min inbuffer A (20 mM Tris, 2 M NaCl, pH 7.5). […] The purified preproHNP-1 was quantified with BCA according to standard procedures. […]
imidazole) and analyzed by a 12% Tris-Tricine gel followed by Coomassie brilliant blue G-250 staining. […]
Proteomics analysis. […] After in-gel digestion by trypsin, the samples were analyzed by LC-MS/MS using a homemade column (75 μm internal diameter ×15 cm long) packed with 3 μm C18 reverse phase beads (Michrom Bioresources, Inc., Auburn, CA, USA), a 60 min gradient was performed on an LTQ-Orbitrap Velos mass spectrometer (Thermo Fisher Scientific, San Jose, CA, USA). […]

E. coli = assay: growth curve of E. coli treated with purified recombinant peptides; type: cell-based; conditions: 20 μg/ml; compared with regular growth medium without IPTG induction
Method: Data were analyzed using a two-tailed Student's t test and are plotted as the mean ± SD for each condition. *, P < 0.05 and **, P < 0.01.
PreproHNP-1 was purified from E. coli under denaturing conditions ([48]), as described in the Supplementary Materials and Methods. […] The mixture was disrupted using a Soniprep Sonicator (Scientz, Ningbo, China) at the power of 25% for 25 cycles. The resultant TCL was centrifuged at 10,000 g for 25 min. The supernatant was loaded into an Amicon Ultra-0.5 ml centrifugal concentration unit (3 kDa MWCO, Millipore, Burlington, MA, USA) and centrifuged at 5,000 g for 10 min to recover the filtered solution. This step was repeated three times. All filtered solutions were pooled for quality checks and then diluted to a concentration of 20 μg/ml before use in antimicrobial activity assays.
E. coli strains and plasmids. E. coli strain BL21 (DE3), E. coli strain DH5α and vector pET-28a(+) were stored at−80 °C in our laboratory. The DNA sequence of preproHNP-1 and flanked with EcoR I and Xho I was generated from synthetic oligonucleotides according to a reference sequence (NM_004084.3). The products were ligated into the pET-28a(+) vector encoding a fragment with six histidine (His6)
The resulting vectors were transformed into the E. coli DH5α cells and after isolation and purification, they were subjected to the DNA sequence analysis. […]

In the case of “HNP-2: antimicrobial peptide cited for filamentation (CYCRIPACIAGERRYGTCIYQGRLWAFCC; ends and bridges not checked; cysteine pairing not given here; UniProt P59665 66-94, looked up)”, the AMP-induced filamentation (bacteria) is given as “filamentation has also been described”.

In the case of PR-39, the AMP-induced filamentation (bacteria) is listed as “filamentation has also been described”.

In the case of “indolicidin (ILPWKWPWWPWRR; ends and bridges not checked; UniProt P33046 131-143, looked up) [antimicrobial peptide cited for filamentation]”, the AMP-induced filamentation (bacteria) is listed as “filamentation has also been described”.

With penicillin the bacterial clearance effect (MRSA) was “neither HNP-1 nor penicillin treatment had any effect”, the “exudation, inflammation, hemorrhage (H&E)” value (H&E lung pathology) was “alleviated these symptoms to a certain degree” and the “RecA expression in MRSA” value (RecA [1]) was “increased significantly”. The “RecA expression in MRPA” value (RecA [2]) was “increased significantly”.

B1: HNP-5: antimicrobial peptide cited for filamentation (peptide, UniProt Q01523 20-94, looked up)
Defensin alpha 5: ESLQERADEATTQKQSGEDNQDLAISFAGNGLSALRTSGSQARATCYCRTGRCATRESLSGVCEISGRLYRLCCR
modifications: Defensin-5
notes: antimicrobial peptide cited for filamentation
For B1, the AMP-induced filamentation (bacteria) is listed as “filamentation has also been described”.

B2: preproHNP-1: full-length precursor of HNP-1 tagged with six histidine residues, cloned into pET-28a(+), expressed in E. coli XPX-1 (protein, UniProt P59665 1-94, looked up)
chain: MRTLAILAAILLVALQAQAEPLQARADEVAAAPEQIAADIPEVVVSLAWDESLAPKHPGSRKNMACYCRIPACIAGERRYGTCIYQGRLWAFCC
modifications: full-length His6 tag
For B2, the “OD600 reached after induction” value (E. coli strain XPX-1) was ~1, the “interaction with RecA” value (RecA [3]; anti-RecA co-immunoprecipitation) was “HNP-1, but not full length 6x His-tagged preproHNP-1, interacted with RecA” and the “co-precipitation with RecA over induction time” value (RecA [3]; anti-RecA immunoprecipitation, Western blot with anti-HNP-1) was “decreased with time”. The “growth curve of E. coli in medium with purified protein” value (E. coli) was “did not differ from those cultured in regular growth medium without IPTG induction”.
